Data set [1] relates to CT-26 subcutaneous colon carcinoma tumors. As to conditions: for survival rate / tumor free animals: Day 39; for average tumor volume: after 39 days; for day animals started to gain weight: mouse, in vivo. An excerpt: In the current experiment, the efficacy of local treatment with extended-release formulations according to some embodiments of the invention was compared to systemic treatment with Docetaxel. For that, subcutaneous colon carcinoma tumors were established in female BALB/c mice (7-8 weeks old, weighing ±16-20 gram at study initiation) and after reaching a desired volume (400-600 mm^3), they were resected and ˜90% of their volume was removed followed by administration of the test items. The recurrence rate of the tumors was followed and compared to an untreated control group.
Animals were injected SC with 0.5 million CT-26 cells above the right hip. When the tumor reached the desired volume (400 mm^3) after ˜7 days, animals were divided to five groups, mice were anesthetized, and the tumors were resected. Group 1 was administered with 200 mg of formulation VI containing 1.3% docetaxel (2.6 mg/mouse) to the tumor bed and Group 2 was administered with 200 mg of formulation I containing 0.88% docetaxel ([…]) to the tumor bed. Groups 3 and 4 were treated by repeated i.v injections of docetaxel solution. Group 3 was administered with 20 mg/kg i.v followed by five i.v injections of 10 mg/kg, once every 4 days. Group 4 was administered with 30 mg/kg i.v followed by five IV injections of 15 mg/kg, once every 4 days. Group 5 served as a saline-treated control with ˜100 μL saline administered locally into the tumor bed. The skin incision was then closed using a sterile suture. Post-surgery, the animals were returned to their cages for recovery and observation. Tumor size, clinical signs, and body weights were followed for 39 days.

Data set [2] can be described thus: Pharmacokinetic profile of locally administered formulations vs i.v docetaxel (Example 11). The class given is in vivo, Sprague-Dawley female Rats. The source says:
This study compared the pharmacokinetics profile of docetaxel sustained release composition according to several embodiments of the invention administered to rats. The systemic PK profile of docetaxel released from the local administered formulations was compared to the PK profile of docetaxel administered i.v.
Animals: 30 Sprague-Dawley female Rats weighing+/−200 gram
Experimental Design—three study groups (n=10) were included in this study. Animals were anesthetized and skin above the right hip was cut (1 cm long) and lifted, creating a SC pocket. By making this pocket, the underlying muscle was slightly injured, mimicking the situation of the resection of SC tumor graft in the rat model. Each animal received the treatment as detailed in Table 7. In Groups 1 and 2, Formulations VI and I respectively were administered in the SC pocket on top of the injured muscle. The skin was then sutured. In the i.v. treated group (Group 3), the administration of treatment was given once, immediately after wound closure. After administration, blood samples were collected in the designated time points. Each treatment group was divided to two subgroups (n=5/subgroup) and each subgroup was sampled at the different time points. Blood was collected at 0.5, 1, 2, 4, 8, 12, and 24 hours and at 2, 3, 4, 5, 6, 7, 14, 21, and 30 days post-administration. Clinical signs and animal weights were followed during the study. The concentration of the released docetaxel in the plasma samples was evaluated by a liquid chromatography tandem mass spectrometry (LC-MS/MS) method (lower limit of quantitation [LLOQ]=3 ng/mL). The results were used to determine the PK profile of docetaxel.

The subject of data set [3] is HCT-8 colorectal carcinoma cells. To be noted: cited from earlier work.
The test system of a further data set is KB-8-5 Epidermoid cells. As to conditions: cited from earlier work.
The next data set deals with KB-P-15 Epidermoid cells. As to conditions: cited from earlier work.
A further data set relates to KB-D-15 Epidermoid cells. To be noted: cited from earlier work.
Another data set relates to KB-V-1 Epidermoid cells. As to conditions: cited from earlier work.
Data set [4] concerns KB-PTX/099 Epidermoid cells. As to conditions: cited from earlier work.
Data set [5] has as its system DLD-1 colorectal carcinoma cells. To be noted: cited from earlier work.
The test system of data set [6] is HCT-15 colorectal carcinoma cells. To be noted: cited from earlier work.
In data set [7] the test system is A549.EpoB40 non squamous cell lung carcinoma. As to conditions: cited from earlier work.
A further data set concerns CT-26 cell line. To be noted: CT-26, resistant cell line; cited from earlier work.
The test system of the next data set is NSCLC: A549 cells. To be noted: A549, non-resistant; cited from earlier work.
In a further data set the test system is CRC: HCT-116 cells. To be noted: HCT-116, non-resistant; cited from earlier work.
The subject of another data set is epidermoid KB-3-1 cells. To be noted: KB-3-1, non-resistant; cited from earlier work.
The conditions of data set [8]: iv; NDA 020449; cited from earlier work.
The mark [9] stands for this setting: female, Sprague-Dawley, rat, intravenous, plasma docetaxel, single i.v 10 mg/kg.
Where [10] appears, read: female, Sprague-Dawley, rat, iv, plasma docetaxel, single i.v 10 mg/kg.

Where two headings read alike, the source gives them in different places.

`CC(=O)O[C@@]12CO[C@@H]1C[C@H](O)[C@@]1(C)C(=O)[C@H](O)C3=C(C)[C@@H](OC(=O)[C@H](O)[C@@H](NC(=O)OC(C)(C)C)c4ccccc4)C[C@@](O)([C@@H](OC(=O)c4ccccc4)[C@H]21)C3(C)C` [docetaxel]: the figures for the survival rate in [1] (i.v 10 mg/kg every 4 days) and in data set [1] (i.v 15 mg/kg every 4 days) were 50% and 63%, respectively. Moreover, the tumor free animals in data set [1] (i.v 20 mg/kg then five injections of 10 mg/kg every 4 days) is recorded as 2/8; in data set [1] (i.v 30 mg/kg then five injections of 15 mg/kg every 4 days), 3/8. For the same molecule, the average tumor volume in data set [1] (i.v 10 mg/kg every 4 days) turned out to be 955 mm^3; in data set [1] (i.v 15 mg/kg every 4 days), 485 mm^3. The “overall tumor free survival” value in data set [1] (day 39 post surgery, five cycles of systemic treatment) was 25%. Moreover, the overall tumor recurrence in data set [1] (end of study, extensive systemic treatment) is on record as 75%. Also, the figures for the “animals terminated early due to tumor volume that exceeded 1500 mm^3” value in data set [1] (i.v 10 mg/kg every 4 days) and in [1] (i.v 15 mg/kg every 4 days) were 4 and 2, respectively. The “day animals started to gain weight” value in [1] (10 mg/kg) is 20 days; in data set [1] (15 mg/kg), 23 days. Moreover, in data set [1] (systemic treatment arm), the “delayed tumor recurrence after tumor resection (first tumor related mortality)” value was determined as 9 days. Also, in data set [2] (881 vs. 80.4 ng/ml), the “Cmax of i.v relative to max exposure of Formulation VI” value was “more than 10 fold”. In [2] (setting [9]), this molecule came in with an exposure AUC(0-t) of 2280 ng·h/mL. The Cmax in data set [2] (setting [9]) turned out to be 881 ng/mL. This molecule also showed a C0 in data set [2] (setting [10]) of 881 ng/mL. In addition, the Tmax in [2] (setting [10]) worked out at 0 h. The molecule also gave a half-life in data set [2] (setting [10]) of 23.1 h. In [2] (plasma docetaxel, single i.v 10 mg/kg), this molecule gave a Tlast of 72 h. Further, the IC50 in [3] was 3070 nM; in the data set with KB-8-5 Epidermoid cells, 8.8 nM; with KB-P-15 Epidermoid cells, 17.6 nM; in the data set on KB-D-15 Epidermoid cells, 68.2 nM; in the data set with KB-V-1 Epidermoid cells it was 468 nM; in [4], 8.8 nM. Besides, the IC50 was 16.2 nM in data set [5]; 54.1 nM in data set [6]; 28.5 nM in data set [7]; 260 nM with CT-26 cell line; 1.9 nM in the data set on NSCLC: A549 cells; 5.4 nM with CRC: HCT-116 cells. Besides, the IC50 with epidermoid KB-3-1 cells was 1.1 nM.

In the case of `CC(=O)O[C@@]12CO[C@@H]1C[C@H](O)[C@@]1(C)C(=O)[C@H](O)C3=C(C)[C@@H](OC(=O)[C@H](O)[C@@H](NC(=O)OC(C)(C)C)c4ccccc4)C[C@@](O)([C@@H](OC(=O)c4ccccc4)[C@H]21)C3(C)C` [Taxotere], the “maximal tolerated dose (MTD) and non-lethal dose (NLD) reported” value in data set [8] is listed as 10 mg/kg.

The record behind these values is patent publication US20240050396A1, “COMPOSITIONS AND METHODS FOR THE TREATMENT OF SOLID TUMORS” (POLYPID LTD., priority 2020, published 2024).
